For this assay, the target named is human ATR kinase (Homo sapiens (Human), UniProt Q13535). The assay is described as follows: In vitro evaluation of inhibitory activity on human ATR kinase (HTRF, ATR/ATRIP(h), GST-cMyc-p53 substrate). It counts as biochemical. As to conditions: 50 nM GST-cMyc-p53, 30 min room temperature. The method, then:
IC50 values were determined to evaluate the inhibitory activity of the tested compounds on human ATR kinase.
ATR/ATRIP(h) was incubated in assay buffer containing 50 nM GST-cMyc-p53 and Mg/ATP (according to concentration required). The reaction was initiated by adding Mg/ATP mixture. After incubating for 30 min at room temperature, a stop solution containing EDTA to was added to terminate the reaction. Finally, detecting buffer containing d^2-labeled anti-GST monoclonal antibody and europium-labeled anti-phospho Ser15 antibody against phosphorylated p^53 were added. Then the plate was read in time-resolved fluorescence mode and homogeneous time resolution was performed.
The fluorescence (HTRF) signal was determined according to the formula HTRF=10000×(Em665 nm/Em620 nm).
IC50 data was analyzed using XLFit version 5.3 (ID Business Solutions). Non-linear regression analysis was used to fit the sigmoidal dose response (variable slope) curve.
(TR-FRET usually uses a lanthanide donor and a delayed reading to cut background.)
Chain of human ATR kinase (Q13535 whole entry): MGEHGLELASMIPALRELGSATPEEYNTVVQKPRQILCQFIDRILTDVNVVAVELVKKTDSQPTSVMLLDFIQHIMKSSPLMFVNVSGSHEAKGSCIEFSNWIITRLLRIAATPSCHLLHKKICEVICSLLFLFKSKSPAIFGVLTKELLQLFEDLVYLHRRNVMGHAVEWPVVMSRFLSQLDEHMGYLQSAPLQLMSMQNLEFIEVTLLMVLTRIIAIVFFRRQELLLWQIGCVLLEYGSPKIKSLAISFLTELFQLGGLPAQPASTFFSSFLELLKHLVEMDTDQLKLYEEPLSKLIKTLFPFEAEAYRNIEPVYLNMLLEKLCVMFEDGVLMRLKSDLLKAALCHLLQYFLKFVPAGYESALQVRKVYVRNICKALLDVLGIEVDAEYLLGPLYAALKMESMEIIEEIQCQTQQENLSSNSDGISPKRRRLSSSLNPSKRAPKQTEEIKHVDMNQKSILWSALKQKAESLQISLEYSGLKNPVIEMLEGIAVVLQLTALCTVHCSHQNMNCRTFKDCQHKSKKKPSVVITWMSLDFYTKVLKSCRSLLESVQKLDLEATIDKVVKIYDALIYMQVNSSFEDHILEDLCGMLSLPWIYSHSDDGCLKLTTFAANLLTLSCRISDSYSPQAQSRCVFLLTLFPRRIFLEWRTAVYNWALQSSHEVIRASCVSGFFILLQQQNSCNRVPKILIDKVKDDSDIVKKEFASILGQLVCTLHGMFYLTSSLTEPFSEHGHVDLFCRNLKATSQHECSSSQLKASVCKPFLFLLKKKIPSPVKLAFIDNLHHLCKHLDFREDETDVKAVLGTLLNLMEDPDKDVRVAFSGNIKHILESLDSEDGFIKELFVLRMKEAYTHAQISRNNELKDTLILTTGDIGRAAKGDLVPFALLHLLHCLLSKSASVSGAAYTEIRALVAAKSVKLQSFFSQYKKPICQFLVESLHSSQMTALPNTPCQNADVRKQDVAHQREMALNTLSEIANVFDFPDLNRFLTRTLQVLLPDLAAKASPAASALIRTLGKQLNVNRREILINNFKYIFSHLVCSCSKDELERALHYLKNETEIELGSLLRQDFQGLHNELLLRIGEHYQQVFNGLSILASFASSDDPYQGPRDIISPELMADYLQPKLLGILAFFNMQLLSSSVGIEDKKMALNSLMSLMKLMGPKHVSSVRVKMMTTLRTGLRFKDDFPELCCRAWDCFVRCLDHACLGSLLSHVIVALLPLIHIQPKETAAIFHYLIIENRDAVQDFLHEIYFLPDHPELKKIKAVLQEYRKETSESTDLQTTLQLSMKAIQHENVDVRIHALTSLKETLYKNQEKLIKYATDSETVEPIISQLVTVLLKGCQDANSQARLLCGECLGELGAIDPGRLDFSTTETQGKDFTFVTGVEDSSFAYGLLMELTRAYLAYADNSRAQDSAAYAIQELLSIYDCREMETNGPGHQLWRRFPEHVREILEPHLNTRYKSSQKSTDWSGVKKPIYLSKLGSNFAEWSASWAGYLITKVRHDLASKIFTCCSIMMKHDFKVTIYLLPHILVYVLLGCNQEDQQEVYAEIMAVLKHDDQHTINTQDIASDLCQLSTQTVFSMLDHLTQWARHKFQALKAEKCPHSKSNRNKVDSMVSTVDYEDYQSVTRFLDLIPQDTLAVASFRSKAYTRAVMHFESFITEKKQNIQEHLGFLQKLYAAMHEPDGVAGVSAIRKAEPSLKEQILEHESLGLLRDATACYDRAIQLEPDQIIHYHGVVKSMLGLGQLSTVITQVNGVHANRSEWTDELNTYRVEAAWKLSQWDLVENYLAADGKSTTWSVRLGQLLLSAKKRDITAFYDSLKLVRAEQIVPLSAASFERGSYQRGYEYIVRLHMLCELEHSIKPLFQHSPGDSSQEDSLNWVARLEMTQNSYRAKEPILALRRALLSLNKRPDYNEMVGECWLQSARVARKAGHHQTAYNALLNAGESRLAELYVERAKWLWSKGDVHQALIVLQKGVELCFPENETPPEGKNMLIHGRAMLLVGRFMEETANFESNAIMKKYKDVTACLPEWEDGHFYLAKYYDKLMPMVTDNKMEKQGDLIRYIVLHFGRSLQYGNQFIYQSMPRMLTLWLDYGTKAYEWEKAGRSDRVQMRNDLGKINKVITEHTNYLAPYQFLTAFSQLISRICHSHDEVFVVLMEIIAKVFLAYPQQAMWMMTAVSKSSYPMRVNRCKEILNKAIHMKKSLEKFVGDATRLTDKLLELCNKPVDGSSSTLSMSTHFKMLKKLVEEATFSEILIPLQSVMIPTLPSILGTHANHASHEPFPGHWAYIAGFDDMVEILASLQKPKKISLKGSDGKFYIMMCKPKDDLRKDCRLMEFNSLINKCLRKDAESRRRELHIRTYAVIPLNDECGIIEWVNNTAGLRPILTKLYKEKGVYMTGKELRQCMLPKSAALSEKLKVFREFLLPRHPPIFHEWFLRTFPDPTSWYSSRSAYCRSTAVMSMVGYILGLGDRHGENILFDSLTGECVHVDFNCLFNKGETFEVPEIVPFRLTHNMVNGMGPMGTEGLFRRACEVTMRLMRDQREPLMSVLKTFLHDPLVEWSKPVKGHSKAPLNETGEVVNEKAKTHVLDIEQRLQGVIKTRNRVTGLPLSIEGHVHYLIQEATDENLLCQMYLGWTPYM
Chain of human ATR kinase (Q8WXE1 whole entry partner): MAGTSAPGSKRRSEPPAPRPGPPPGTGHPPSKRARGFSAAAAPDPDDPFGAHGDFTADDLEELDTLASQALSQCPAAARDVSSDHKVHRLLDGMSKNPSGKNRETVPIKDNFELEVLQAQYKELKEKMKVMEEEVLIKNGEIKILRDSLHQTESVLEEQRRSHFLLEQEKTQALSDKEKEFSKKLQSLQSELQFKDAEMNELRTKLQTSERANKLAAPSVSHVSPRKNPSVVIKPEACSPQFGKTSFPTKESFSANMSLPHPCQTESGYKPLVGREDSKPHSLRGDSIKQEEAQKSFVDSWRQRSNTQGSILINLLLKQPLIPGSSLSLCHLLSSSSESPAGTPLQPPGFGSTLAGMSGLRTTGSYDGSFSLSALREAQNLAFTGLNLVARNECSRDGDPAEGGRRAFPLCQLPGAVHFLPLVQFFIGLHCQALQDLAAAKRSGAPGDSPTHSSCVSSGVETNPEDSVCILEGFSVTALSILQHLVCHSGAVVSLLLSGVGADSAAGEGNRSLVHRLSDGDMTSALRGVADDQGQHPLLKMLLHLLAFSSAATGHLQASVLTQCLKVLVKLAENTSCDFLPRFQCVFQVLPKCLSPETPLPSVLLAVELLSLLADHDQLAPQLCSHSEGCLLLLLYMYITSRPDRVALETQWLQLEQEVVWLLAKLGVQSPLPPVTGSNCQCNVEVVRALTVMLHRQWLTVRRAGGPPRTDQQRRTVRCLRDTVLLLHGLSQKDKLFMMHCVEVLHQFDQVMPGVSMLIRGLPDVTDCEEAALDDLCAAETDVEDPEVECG
By IC50 is commonly meant the concentration needed to halve the response being measured. Compound `Cc1cc(-c2nc(-c3c(C)nnn3C)cc(N3CCOC[C@H]3C)n2)c2cc[nH]c2c1` [WX52] displayed an IC50 of 20 nM.

With `Cc1cnn(C)c1-c1cc(-c2cc(F)cc3[nH]ccc23)nc(N2CCOC[C@H]2C)n1` [WX10], it took 80 nM to reach half-maximal inhibition (IC50).

`C[C@@H]1COCCN1c1cc(-c2cn(C)nc2C(F)(F)F)nc(-c2ccnc3[nH]ccc23)n1` [WX27] gave an IC50 of 123 nM. For the compound `Cc1nnc(C)n1-c1cc(-c2ccnc3[nH]ccc23)nc(N2CCOC[C@H]2C)c1` [WX48], the IC50 is 105 nM.

With `Cc1nnn(C)c1-c1cc(N2CCOC[C@H]2C)nc(-c2cc(F)cc3[nH]ccc23)n1` [WX36], the IC50 was 14 nM. `C[C@@H]1COCCN1c1cc(-c2cnn(C)c2CO)nc(-c2ccnc3[nH]ccc23)n1` [WX29]: inhibition was half-maximal at 96 nM (IC50).

In the case of `Cc1noc(C)c1-c1cc(N2CCOC[C@H]2C)nc(-c2cc(CO)cc3[nH]ccc23)n1` [WX51], the IC50 is 32 nM.

With `C[C@@H]1COCCN1c1nc(-c2ccnc3[nH]ccc23)cc(-c2ccnn2C)n1` [WX06], the IC50 worked out at 245 nM.

In turn, `Cc1nnc(C)n1-c1cc(-c2cccc3[nH]ccc23)nc(N2CCOC[C@H]2C)c1` [WX57] yielded an IC50 of 28 nM. Then `Cc1nnc(C)n1-c1cc(-c2cccc3[nH]ccc23)nc(N2CCOC[C@H]2C)n1` [WX55], with 20 nM.

For `Cc1cnn(C)c1-c1cc(N2CCOC[C@H]2C)nc(-c2cccc3[nH]ccc23)n1` [WX13], the IC50 was 24 nM. Then `Cc1nc(F)ccc1-c1cc(N2CCOC[C@H]2C)nc(-c2ccnc3[nH]ccc23)n1` [WX41], with 78 nM.

As for `Cc1noc(C)c1-c1cc(-c2ccnc3[nH]ccc23)nc(N2CCOC[C@H]2C)c1` [WX30], the midpoint of inhibition, the IC50, lay at 35 nM.

For `C[C@@H]1COCCN1c1nc(-c2cc(F)cc3[nH]ccc23)cc(-c2ccnn2C)n1` [WX09], the IC50 was 369 nM.

With `Cc1nnn(C)c1-c1cc(N2CCOC[C@H]2C)nc(-c2cccc3[nH]ccc23)n1` [WX35], the IC50 came to 19 nM.

`Cc1nn(C)cc1-c1cc(N2CCOC[C@H]2C)nc(-c2ccnc3[nH]ccc23)n1` [WX25]: the IC50 came out at 92 nM. Then `Cc1nnc(C)n1-c1cc(-c2cc(F)cc3[nH]ccc23)nc(N2CCOC[C@H]2C)c1` [WX54], with 27 nM; and `Cc1cc(-c2cc(N3CCOC[C@H]3C)nc(-c3cc(F)cc4[nH]ccc34)n2)n(C)n1` [WX20], with 69 nM; and `C[C@@H]1COCCN1c1cc(-c2cccc3[nH]ccc23)nc(-c2ccnn2C)c1` [WX01], with 119 nM. Then `Cc1cnn(C)c1-c1cc(-c2ccnc3[nH]ccc23)nc(N2CCOC[C@H]2C)c1` [WX31], with 39 nM; and `C[C@@H]1COCCN1c1cc(-c2ccnn2C)nc(-c2cc(F)cc3[nH]ccc23)n1` [WX19], with 81 nM; and `Cc1cc(-c2cc(N3CCOC[C@H]3C)nc(-c3ccnc4[nH]ccc34)n2)n(C)n1` [WX16], with 97 nM. Take `Cc1ncn(C)c1-c1cc(N2CCOC[C@H]2C)nc(-c2ccnc3[nH]ccc23)n1` [WX44]: the IC50 is 65 nM. For the compound `Cc1nnn(C)c1-c1cc(N2CCOC[C@H]2C)nc(-c2cc(CO)cc3[nH]ccc23)n1` [WX37], the IC50 came to 16 nM. In the case of `Cc1cnn(C)c1-c1cc(N2CCOC[C@H]2C)nc(-c2cc(C(=O)O)cc3[nH]ccc23)n1` [WX53], 83 nM corresponded to half-maximal inhibition (IC50).

`Cc1nnn(C)c1-c1cc(-c2ccnc3[nH]ccc23)nc(N2CCOC[C@H]2C)c1` [WX39]: the IC50 amounted to 42 nM. The compound `CCn1nccc1-c1cc(N2CCOC[C@H]2C)nc(-c2cc(F)cc3[nH]ccc23)n1` [WX22] registered an IC50 of 65 nM. Turning to `C[C@@H]1COCCN1c1cc(-c2ccnn2C)cc(-c2ccnc3[nH]ccc23)n1` [WX33], half-maximal inhibition (IC50) was put at 198 nM. As for `CCn1nccc1-c1cc(N2CCOC[C@H]2C)nc(-c2cccc3[nH]ccc23)n1` [WX14], the figure is 50 nM. In turn, `Cc1cnn(C)c1-c1cc(N2CCOC[C@H]2C)nc(-c2ccnc3[nH]ccc23)n1` [WX17] showed an IC50 of 12 nM. As for `Cc1nn(C)c(C)c1-c1cc(N2CCOC[C@H]2C)nc(-c2ccnc3[nH]ccc23)n1` [WX24], the figure is 18 nM; as for `Cc1n[nH]c(C)c1-c1cc(N2CCOC[C@H]2C)nc(-c2ccnc3[nH]ccc23)n1` [WX23], 115 nM; as for `Cc1nnn(C)c1-c1cc(-c2cc(CO)cc3[nH]ccc23)nc(N2CCOC[C@H]2C)c1` [WX38], 78 nM.

As to `CCn1nccc1-c1cc(-c2cccc3[nH]ccc23)nc(N2CCOC[C@H]2C)n1` [WX05], the IC50 was found to be 53 nM. As for `CCn1nccc1-c1cc(-c2cc(F)cc3[nH]ccc23)nc(N2CCOC[C@H]2C)n1` [WX11], the figure is 191 nM; as for `Cc1n[nH]c(C)c1-c1cc(-c2ccnc3[nH]ccc23)nc(N2CCOC[C@H]2C)c1` [WX32], 35 nM. `Cc1cc(-c2cc(N3CCOC[C@H]3C)nc(-c3cccc4[nH]ccc34)n2)n(C)n1` [WX03] had an IC50 of 72 nM. As for `Cc1nnc(C)n1-c1cc(-c2cc(F)cc3[nH]ccc23)nc(N2CCOC[C@H]2C)n1` [WX56], the figure is 46 nM.

Take `CCn1nccc1-c1cc(N2CCOC[C@H]2C)nc(-c2ccnc3[nH]ccc23)n1` [WX18]: the IC50 worked out at 83 nM. With `Cc1cnn(C)c1-c1cc(-c2cccc3[nH]ccc23)nc(N2CCOC[C@H]2C)n1` [WX12], half-maximal inhibition (IC50) required 41 nM. Then `Cc1nnn(C2CC2)c1-c1cc(N2CCOC[C@H]2C)nc(-c2cc(CO)cc3[nH]ccc23)n1` [WX49], with 26 nM. Then `Cc1c(-c2cc(N3CCOC[C@H]3C)nc(-c3ccnc4[nH]ccc34)n2)cnn1C` [WX26], with 123 nM; and `Cc1noc(C)c1-c1cc(N2CCOC[C@H]2C)nc(-c2ccnc3[nH]ccc23)n1` [WX28], with 47 nM. As for `CCn1nccc1-c1cc(-c2ccnc3[nH]ccc23)nc(N2CCOC[C@H]2C)n1` [WX08], the figure is 126 nM; as for `COCc1cnn(C)c1-c1cc(N2CCOC[C@H]2C)nc(-c2ccnc3[nH]ccc23)n1` [WX43], 65 nM; as for `Cc1cnn(C)c1-c1cc(-c2ccnc3[nH]ccc23)nc(N2CCOC[C@H]2C)n1` [WX07], 75 nM. `C[C@@H]1COCCN1c1nc(-c2cccc3[nH]ccc23)cc(-c2ccnn2C)n1` [WX04] came in with an IC50 of 91 nM. Take `C[C@@H]1COCCN1c1cc(-c2ccnn2C)nc(-c2cccc3[nH]ccc23)n1` [WX02]: the IC50 stood at 72 nM. As for `Cc1cnn(C)c1-c1cc(N2CCOC[C@H]2C)nc(-c2cc(F)cc3[nH]ccc23)n1` [WX21], the figure is 27 nM; as for `COc1cc(C)c(-c2cc(N3CCOC[C@H]3C)nc(-c3ccnc4[nH]ccc34)n2)cn1` [WX40], 15 nM.

Values taken from US11434232B2, “ATR inhibitor and application thereof” (WUXI BIOCITY BIOPHARMACEUTICS CO., LTD., priority 2018, dated 2022).
